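Test compounds were applied to cells in 96-well plates for 48 hours at 5 doses. The concentration for 50% growth inhibition is given as GI50. TGI: total growth inhibition.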
What was measured:
Assay in all cases: NCI tumour cell line growth inhibition, 48 h
COLO 205 colon = tested on: COLO 205 colon
HCT-116 colon = tested on: HCT-116 colon
HT29 colon = tested on: HT29 colon
NCI-H460 lung = tested on: NCI-H460 lung
SF-539 CNS = tested on: SF-539 CNS
SK-MEL-2 melanoma = tested on: SK-MEL-2 melanoma
SK-OV-3 ovarian = tested on: SK-OV-3 ovarian
SN12C renal = tested on: SN12C renal
SNB-19 CNS = tested on: SNB-19 CNS
SW-620 colon = tested on: SW-620 colon

Compound	TGI (COLO 205 colon) [µM]	TGI (HCT-116 colon) [µM]	TGI (HT29 colon) [µM]	TGI (NCI-H460 lung) [µM]	TGI (SF-539 CNS) [µM]	TGI (SK-MEL-2 melanoma) [µM]	TGI (SK-OV-3 ovarian) [µM]	TGI (SN12C renal) [µM]	TGI (SNB-19 CNS) [µM]	TGI (SW-620 colon) [µM]	GI50 (COLO 205 colon) [µM]	GI50 (NCI-H460 lung) [µM]	GI50 (SF-539 CNS) [µM]	GI50 (SK-MEL-2 melanoma) [µM]	GI50 (SN12C renal) [µM]	GI50 (HCT-116 colon) [µM]	GI50 (HT29 colon) [µM]	GI50 (SNB-19 CNS) [µM]	GI50 (SW-620 colon) [µM]
COc1ccc2c(c1)CCC(CN1CCN(CCOC(c3ccc(F)cc3)c3ccc(F)cc3)CC1)C2O (centres undefined)	20.2	23.8	18.4	44.9	51.6	30.8	31.5	34	31.5	> 100									
C/C1=N\NC(=O)c2ccccc2C(=O)N/N=C(\C)c2cccc1n2.O=[N+]([O-])[O-].[Zn+2]	> 100	> 100	> 100	> 100	> 100	> 100	> 100	> 100	> 100	> 100									
CCN=C=NCCCN(C)C	> 100	> 100	> 100	> 100	> 100	> 100	> 100	> 100	> 100	> 100									
COc1ccc2[nH]c3c([N+](=O)[O-])ccc(Cl)c3c(=O)c2c1	32.7	27.4	32.2	> 95.4	34.2	58.5	> 100	55.1	> 80.9	42.8									
Nc1ccc(OCC(O)N2C(=O)c3ccccc3C2=O)cc1 (centres undefined)	> 100	> 100	> 100	> 100			> 100		> 100	> 100									
CC(C)(C)C1(c2ccc(C3(c4ccccc4)Oc4ccccc4S3)[nH]2)Oc2ccccc2S1 (centres undefined)		> 100	> 100	> 100	> 100	> 100	> 100	> 100	> 100	> 100									
Nc1cc(S(=O)(=O)O)cc2cc(S(=O)(=O)O)c(N=Nc3ccc(-c4ccc(N=Nc5c(S(=O)(=O)O)cc6cc(S(=O)(=O)O)cc(N)c6c5O)cc4)cc3)c(O)c12	> 100	> 100	> 100	> 100	> 100	> 100	> 100	> 100	> 100	> 100									
COC1/C=C\OC2(C)Oc3c(C)c(O)c4c(O)c(c(/C=N\OCCCc5ccccc5)c(O)c4c3C2=O)NC(=O)/C(C)=C\C=C/C(C)C(O)C(C)C(O)C(C)C(OC(C)=O)C1C (centres undefined)	4.12	5.26	11.3	15.6	7.3	5.35	15.4	7.66	19.7	18									
Cc1ccc(P(c2ccc(C)cc2)c2ccc(C)cc2)cc1	44.6	28.2	> 100	36.5	37.7	57.9	95.9	34.3	> 100	> 100									
C=C(CN(C)C)C(=O)c1ccc(C)cc1C	11.3	13	36.6	46.9	30	37	39.6	33.4	57.7	13.5									
O=Nc1ccc(O)c2ncccc12	30.6	3.04	34.6	12.8	4.96	6.39	31.3	25.2	74.7	18.2									
C=C1C(=O)CCC1C(=O)O (centres undefined)	> 100	> 100	> 100	> 100	> 100	> 100	> 100	> 100	> 100	> 100									
C[C@H](C(=O)N[C@@H](Cc1ccc(-c2ccccc2)cc1)C(=O)NC1CC(C)(C)N(C)C(C)(C)C1)c1ccc(-c2ccccc2)c(F)c1	2.87			2.43	3.03	3.55		2.77			1.37	1.06	1.56	1.61	1.31				
COc1ccc(-c2nn(-c3ccc(NC(=O)Nc4ccc(Cl)c(Cl)c4)cc3)cc2-c2ccncc2)cc1Cl	5.27	11.7	> 100	8.54	> 100	4.76		> 100	> 100	> 100	2.19	2.14	2.82	2.02	2.6	1.65	2.55	3.36	3.31

Source: PubChem BioAssay (NCI)
